# Where “and” joins values, the source holds several entries; their conditions need not be identical. Identical values can stand only once.
# What was measured:
# [1] = Metabolic stability with rat liver microsomes (RLMs); format: in vitro ADME
# Procedure: The metabolic stability was estimated using rat liver microsomes (RLMs) obtained from Sigma-Aldrich (St. Louis, MO, USA). Les-3331 was incubated in the presence of RLMs and NADPH Regeneration System (Promega, Madison, WI, USA) in Tris-HCl buffer (pH 7.4) for 120 min. Cold ethanol was added next to stop the reaction. The reaction mixture was centrifuged. The aforementioned UPLC-MS device was used to analyze the supernatant. MS/MS ion fragment analyses were performed for Les-3331 and the main metabolite. The in silico prediction of possible Les-3331 metabolic pathways was performed by MetaSite 8.0.1. Software (Molecular Discovery Ltd., Hertfordshire, UK).
# [2] = test system: Salmonella Typhimurium TA100; details: Ames MPF
# Procedure: The mutagenicity was evaluated using Ames microplate fluctuation protocol (MPF) from Xenometrix (Allschwil, Switzerland). The applied Salmonella Typhimurium TA100 strain was enabled to detect base-pair substitution (hisG46 mutation, for which target is GGG). Les-3331 was tested independently in two final concentrations, 1 and 5 µM, in triplicate. The reference mutagen 4-NQO was tested at 26.3 µM. The occurrence of revertants was visualized using pH indicator dye, which was present in the bacterial medium. The color changes from violet to yellow were confirmed using measurements of absorbance with a microplate reader, EnSpire, at 420 nm. According to the protocols and data sheets provided by Xenometrix, the medium control baseline (MCB) was calculated first, which refers to the number of revertants observed in the control (growth medium + 1% DMSO) plus standard deviation. Next, the Binomial B-value was calculated for tested compounds which indicates the probability that spontaneous mutations occurred. The fold increase ≥2 over the MCB and/or Binomial B-value ≥ 0.99 are considered as the mutagen alert.
smiles,measurement,setting,value
"CC(C)C(C(=O)O)N1C(=O)/C(=C/C(Cl)=C/c2ccc([N+](=O)[O-])cc2)SC1=S (stereo not shown) [Les-3331, 2-{5-[(Z,2Z)-2-chloro-3-(4-nitrophenyl)-2-propenylidene]-4-oxo-2-thioxothiazolidin-3-yl}-3-methylbutanoic acid]",% of the Remaining Substrate,"[1]; RLMs, 120 min incubation",52% and 52.03%
same,Proposed Metabolic Pathway,"[1]; main metabolite M1, RLMs 120 min",decomposition
same,Proposed Metabolic Pathway,"[1]; metabolite M2, RLMs 120 min",decomposition and hydroxylation
same,Proposed Metabolic Pathway,"[1]; metabolite M3, RLMs 120 min",decomposition and dehydrogenation
same,Proposed Metabolic Pathway,"[1]; metabolite M4, RLMs 120 min",decomposition
same,mutagenicity,"[2]; TA100, 1 µM",not mutagenic
same,fold increase in MCB,"[2]; TA100, 5 µM",twofold increase in MCB was not reached

# — paper PMC9032233, “2-{5-[(Z,2Z)-2-Chloro-3-(4-nitrophenyl)-2-propenylidene]-4-oxo-2-thioxothiazolidin-3-yl}-3-methylbutanoic Acid as a Potential Anti-Breast Cancer Molecule” (International Journal of Molecular Sciences, 2022)
